{"source": "paper PMC3736071", "about": "“Probing horseradish peroxidase catalyzed degradation of azo dye from tannery wastewater” (SpringerPlus, 2013)", "system": "T1, horseradish peroxidase (HRP)", "T1 construct": "gene PRXC1A", "assay": "dye decolorization at […] nm, Lineweaver-Burk plot", "format": "biochemical, Armoracia rusticana", "conditions": "free HRP; H2O2 co-substrate (14 μL of 30% w/v per 3 mL, fixed); pH 6.6; 30°C; commercial dye; read-out: apparent Km", "data": [{"compound": "O=S(=O)(O)c1cccc(N=Nc2ccc(N=Nc3ccc(Nc4ccccc4)c4c(S(=O)(=O)O)cccc34)c3ccccc23)c1", "note": "[C.I. Acid Blue 113]", "values": [{"measurement": "Km", "result": 68, "unit": "µM"}]}]}
